# Measurements published in patent US20080293679A1, “Use of carotenoids and/or carotenoid derivatives/analogs for reduction/inhibition of certain negative effects of COX inhibitors” (priority 2005, published 2008).
# Where two headings read alike, the source gives them in different places. Marks after values point to notes of the source that are not given here.
# Assays:
# [1] = test system: superoxide anion generation from phorbol-ester (PMA)-stimulated PMNs; assay: Direct superoxide anion scavenging by EPR spectroscopy (DEPMPO spin trap), isolated human neutrophil assay; format: cell-based
# Method: Leukocyte Isolation and Preparation. Human polymorphonuclear leukocytes (PMNs) were isolated from freshly sampled venous blood of a single volunteer by Percoll density gradient centrifugation as described previously. Briefly, each 10 mL of whole blood was mixed with 0.8 mL of 0.1 M EDTA and 25 mL of saline. The diluted blood was then layered over 9 mL of Percoll at a specific density of 1.080 g/mL. After centrifugation at 400×g for 20 min at 20° C., the plasma, mononuclear cell, and Percoll layers were removed. Erythrocytes were subsequently lysed by addition of 18 mL of ice-cold water for 30 s, followed by 2 mL of 10×PIPES buffer (25 mM PIPES, 110 mM NaCl, and 5 mM KCl, titrated to pH 7.4 with NaOH). Cells were then pelleted at 4° C., the supernatant was decanted, and the procedure was repeated. After the second hypotonic cell lysis, cells were washed twice with PAG buffer [PIPES buffer containing 0.003% human serum albumin (HSA) and 0.1% glucose]. Afterward, PMNs were counted by light microscopy on a hemocytometer. The isolation yielded PMNs with a purity of >95%. The final pellet was then suspended in PAG-CM buffer (PAG buffer with 1 mM CaCl2 and 1 mM MgCl2).
# EPR Measurements. All EPR measurements were performed using a Bruker ER 300 EPR spectrometer operating at X-band with a TM110 cavity as previously described. The microwave frequency was measured with a Model 575 microwave counter (EIP Microwave, Inc., San Jose, Calif.). To measure superoxide anion ? generation from phorbol-ester (PMA)-stimulated PMNs, EPR spin-trapping studies were performed using the spin trap DEPMPO (Oxis, Portland, Oreg.) at 10 mM. 1×10^6 PMNs were stimulated with PMA (1 ng/mL) and loaded into capillary tubes for EPR measurements. To determine the radical scavenging ability of 3 and 9 in aqueous and ethanolic formulations, PMNs were pre-incubated for 5 minutes with test compound, followed by PMA stimulation.
# Instrument settings used in the spin-trapping experiments were as follows: modulation amplitude, 0.32 G; time constant, 0.16 s; scan time, 60 s; modulation frequency, 100 kHz; microwave power, 20 milliwatts; and microwave frequency, 9.76 GHz. The samples were placed in a quartz EPR flat cell, and spectra were recorded. The component signals in the spectra were identified and quantified as reported previously.
# [2] = format: physicochemical
# Method: (§1) Determination of aqueous solubility/dispersibility. 30.13 mg of 3 was added to 1 mL of USP-purified water. The sample was rotated for 2 hours, then centrifuged for 5 minutes. After centrifuging, solid was visible in the bottom of the tube. A 125-μL aliquot of the solution was then diluted to 25 mL. The sample was analyzed by UV/Vis spectroscopy at 436 nm, and the absorbance was compared to a standard curve compiled from 4 standards of known concentration. The concentration of the original supernatant was calculated to be 2.85 mg/mL and the absorptivity was 36.94 AU*mL/cm*mg. Slight error may have been introduced by the small size of the original aliquot.
# as §1, with “Next, 30.80” for “Determination of aqueous solubility/dispersibility. 30.13”, “9” for “3”, “411” for “436”, “The concentration of the original supernatant was calculated to be 2.85 mg/mL and the absorptivity was 36.94 AU*mL/cm*mg.” left out
# [3] = Lipid peroxide levels in DLPC multilamellar vesicles, C/P 0.2 (triiodide assay); format: biochemical; conditions: for Lipid Peroxide Levels: mean ± S.D.
# Method: The levels of lipid peroxide formation were measured photometrically at specific time points. […] Samples were prepared in a glass test tube as described in the table above. […] Sample tubes were vortexed for 3 min to form MLVs. This assay is based on the principle of the oxidative capacity of lipid peroxides to convert […], which can be measured photometrically at […] (El-Saadani et al., 1989). […] Samples were placed in a water bath set at 37° C. Samples remained in the water bath throughout the experiment except for the temporary removal for time point extractions. • 2. […] • 3. After combining sample time point aliquots with CHOD active reagent and the diffraction buffer as described in the table above, test samples were incubated about 6 hours in darkness at ambient temperature. • 4. The absorbance ([…] nm) of the samples was measured using a spectrophotometer. • 5. […] This value was determined by adding known concentrations of I2 to the CHOD reagent. A stoichiometric relationship (slope=1.02) was observed between the amount of organic peroxides assayed and the concentration of I3^- produced.
# [4] = Peroxidation study in DLPC multilamellar vesicles, C/P 0.6; format: biochemical; conditions: C/P 0.6, carotenoid 10 μM, 48 hour
# Method: 1. Samples were prepared in a glass test tube as described in the table above. This gives a cholesterol/DLPC mole ratio of 0.6 and a final concentration of 10 μM for the carotenoids. Equal volumes of vehicle (20 μl chloroform) were added to control samples. 2. All samples were dried down under a steady stream of nitrogen gas while vortexing. 3. Samples were placed in a vacuum desiccator for 2 hours to remove residual solvent and protected from light. 4. Multi-lamellar vesicles (MLVs) were prepared by the method developed by Bangham and Standish (1965). After samples were removed from the vacuum desiccator, they were immediately resuspended in 1 ml of diffraction buffer warmed to room temperature and vortexed for 3 minutes to form MLVs.
# This assay is based on the principle of the oxidative capacity of lipid peroxides to convert I2 to I3^− (triiodide), which can be measured photometrically at 365 nm (el-Saadani et al., 1989). This assay is sensitive to peroxide concentrations as low as 10 μM.
# 1. Samples were placed in a water bath set at 37° C. throughout the experiment. 2. Aliquots of a sample (20 μl) were extracted at a 48 hour time point as described in the table below.
# 3. After combining the samples with CHOD active reagent and the diffraction buffer, test samples were incubated for about 6 hours in darkness at ambient temperature. 4. The absorbance of a sample was measured photometrically at 365 nm.
# Concentrations of lipid peroxides were calculated by the use of the molar absorptivity of I3^− measured at 365 nm (ε=2.46±0.25×10^4M^−1 cm^−1). This value was determined by adding known concentrations of […] to the CHOD reagent. A stoichiometric relationship (slope=1.02) was observed between the amount of organic peroxides assayed and the concentration of I3^− produced.
# [5] = Lipid peroxide (LOOH) formation in DAPC lipid vesicles with cholesterol (triiodide assay); format: biochemical
# Method: The ability of astaxanthin to block the pro-oxidant effects of rofecoxib was tested in lipid vesicles reconstituted from DAPC (10 mg/ml) in physiologic buffer (0.5 mM HEPES, 154 mM NaCl, pH=7.32). The lipid vesicles also contained cholesterol at a level that reproduced physiologic conditions (0.2 cholesterol to phospholipid mole ratio). The drug effects were tested in the vesicles following addition of astaxanthin, rofecoxib or the combination of these two agents at an identical concentration (250 nM). To measure lipid peroxide (LOOH) formation, we used an assay that measures the conversion of I2 to I3^− (triiodide). This reaction takes place in the presence of LOOH in a manner that can be measured photometrically at 365 nm, El-Saadani, 1989. […] The lipid peroxidation reaction occurs gradually under normal atmospheric oxygen conditions in a shaking water bath (37° C.).
# human LDL [6] = assay: Conjugated diene formation in isolated human LDL (CuSO4-induced oxidation); format: biochemical; conditions: 100 nM
# Method: (§2) The effects of the compounds on lipid peroxidation were tested in isolated human LDL. Human venous blood was collected into vacutainer tubes containing K3EDTA after a 12-hour fast. Plasma was immediately separated by centrifugation at 3000 g for 25 minutes. LDL was obtained from plasma by ultracentrifugation using a procedure similar to that reported by Chung et al, 1986 using discontinuous KBr gradient. The purity of the freshly isolated LDL was assessed by SDS-PAGE using the procedure of Laemmli, 1970.
# (§3) The extent of oxidation was measured for the LDL in the absence and presence of the drugs over a range of concentrations. Malondialdehyde (MDA), a product of lipid oxidation, was measured by the reaction of this aldehyde with thiobarbituric acid in an acid medium to form a stable chromogen, referred to as thiobarbituric-acid-reactive-substances (TBARS). Purified LDL (100 μg protein/ml) was incubated for 30 minutes with either vehicle or an NSAID at various concentrations followed by addition of 50 μM CuSO4 at 37° C. Conjugated diene formation was measured by continuously monitoring the change in absorbance at 234 nm on a Beckman DU 640 spectrophotometer, as described by Esterbauer et al., 1985. Stock solutions were tested for iron contamination, which can contribute independently to lipid peroxidation and assay artifacts.
# [7] = Oxygen Radical Absorption Capacity (ORAC) of human plasma; format: biochemical; conditions: 1.0 μM
# Method: The comparative effect of COX-2 selective agents on the antioxidant capacity of human plasma was assessed using the Oxygen Radical Absorption Capacity (ORAC) assay. This assay was carried out according to the method of Huang et al., 2002 with fresh plasma using a microplate fluorescence reader in 96 well format with the excitation and emission filters set at 485 and 530 nm respectively.
# [8] = F2-isoprostane formation from DAPC lipid vesicles by GC/NCI-MS; format: biochemical; conditions: 100 nM; vehicle 140±25 ng/100 μl; mean ± S.D.
# Method: F2-Isoprostanes are derived principally from the formation of positioned peroxyl radical isomers of arachidonic acid, endocyclization to protaglandin G2-like structures, and reduction to PGF2-like compounds. Total levels of F2-isoprostanes, in DAPC lipid vesicles prepared in the presence of vehicle or drug, were measured by GC-MS with negative chemical ionization as described by Walter et al., 2000. Peroxidation of lipids occurred over time in the absence of any exogenous initiators at 37° C. F2-Isoprostane formation was also measured independently using mass spectroscopy in a blinded study at the Antioxidant Research Laboratory, Tufts University, Boston, Mass.
# human LDL [9] = assay: MDA formation (TBARS) in isolated human LDL; format: biochemical
# Method: as §2, §3
# [10] = alone at 250 nM, 48 hour incubation at 37° C.
compound,measurement,setting,value
"β,ε-carotenyl 3,3′-disuccinate sodium salt [Lutein Disuccinate Sodium Salt]",Mean (% inhibition) of superoxide anion signal,"[1]; 40% EtOH, 0.1 mM, listed as disodium disuccinate derivative of natural source lutein, sodium salt",did not significantly increase scavenging
same,Mean (% inhibition) of superoxide anion signal,"[1]; 40% EtOH, 0.1 mM, sodium salt",5.0%
same,Mean (% inhibition) of superoxide anion signal,"[1]; Water, 0.1 mM",0%
same,Mean (% inhibition) of superoxide anion signal,"[1]; Water, 1.0 mM",13.0%
same,Mean (% inhibition) of superoxide anion signal,"[1]; Water, 3.0 mM",61.7%
same,Mean (% inhibition) of superoxide anion signal,"[1]; Water, 5.0 mM, listed as disodium disuccinate derivative of natural source lutein, sodium salt",~75%
same,Mean (% inhibition) of superoxide anion signal,"[1]; Water, 5.0 mM, listed as disuccinate lutein sodium salt, sodium salt",75%
same,Mean (% inhibition) of superoxide anion signal,"[1]; Water, 5.0 mM, sodium salt",74.7%
same,aqueous solubility/dispersibility,[2],2850 µg/mL
"CC1=C(/C=C/C(C)=C/C=C/C(C)=C/C=C/C=C(C)/C=C/C=C(C)/C=C/C2=C(C)C(=O)[C@@H](O)CC2(C)C)C(C)(C)C[C@H](O)C1=O [Astaxanthin, 3,3′-dihydroxy-β,β′-carotene-4,4′-dione]",% increase (+) or decrease (−) of lipid peroxide levels compared to control,"[3]; 24 Hour, carotenoid 1 μM",−6.9%^a
same,Lipid Peroxide Levels,"[3]; 24 Hour, carotenoid 1 μM, control 218 ± 20",203 ± 17 µM
same,% increase (+) or decrease (−) of lipid peroxide levels compared to control,"[3]; 24 Hour, carotenoid 10 μM",−22.5%
same,Lipid Peroxide Levels,"[3]; 24 Hour, carotenoid 10 μM, control 218 ± 20",169 ± 7 µM
same,% increase (+) or decrease (−) of lipid peroxide levels compared to control,"[3]; 48 Hour, carotenoid 1 μM",−12.6%^a
same,Lipid Peroxide Levels,"[3]; 48 Hour, carotenoid 1 μM, control 572 ± 76",500 ± 57 µM
same,% increase (+) or decrease (−) of lipid peroxide levels compared to control,"[3]; 48 Hour, carotenoid 10 μM",−40.7%^a
same,Lipid Peroxide Levels,"[3]; 48 Hour, carotenoid 10 μM, control 572 ± 76",339 ± 42 µM
same,antioxidant/pro-oxidant effect,[3]; C/P 0.2,strong antioxidant effect
same,antioxidant/prooxidant activity,[4],the only antioxidant
same,decrease in lipid peroxidation vs control,[5]; added together with rofecoxib at equimolar concentration (250 nM),6.5%
same,decrease in lipid peroxidation vs control,[5]; [10],4.4%
CS(=O)(=O)c1ccc(C2=C(c3ccccc3)C(=O)OC2)cc1 [rofecoxib],decrease in lag time for human LDL conjugated diene formation,human LDL [6],42.8±1.5%
same,reduction of ORAC value,[7]; fresh human plasma,34%
same,ORAC value (AUC),[7]; vehicle 28.1±1.2,18.6±1.3
same,Levels of isoprostanes,[8],190±18 ng/100 μl
same,effect on MDA levels (TBARS) in human LDL,human LDL [9],marked increases
same,effect on MDA levels (TBARS) in human LDL,"human LDL [9]; 50 nM, 10-fold lower than comparison drugs",significant increase
same,increase in lipid peroxide levels vs control,[5]; [10],7.4%
